The record followed here is ChEMBL document CHEMBL1201862, “PubChem BioAssay data set” (2004).

Calls of active or inactive are those of the source.

A short description of test [1]: viability of PTEN-deleted HCT116 cells – cell-based, HCT116 PTEN knockout, dose response (AID 1047).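 Further: HCT116 colon tumor cells with PTEN knocked out; cells exposed to compound for 60 hours before readout; potency for loss of cell viability measured by luminescence.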 It is filed as functional.
Test [2] in a line: Trypanosoma cruzi growth suppression in host cells – NIH3T3 host cells, beta-gal luminescence, confirmation (AID 2044).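 Further: intracellular parasites grown in NIH/3T3 mouse fibroblasts as host cells; luminescent beta-galactosidase reporter signal from transgenic T. cruzi replicating inside host cells; inhibitors lower the luminescence signal.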 It counts as functional, cell-based.
A short description of test [3]: NIH3T3 cell viability loss – ATP luminescence, mouse fibroblasts, counter-screen, dose response (AID 2010).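 Further: cells exposed to compound for about 90 hours before reading.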 It counts as functional, cell-based. In general terms: The purpose of a counterscreen is to sort out artefacts and off-target activity.
The nature of test [4]: viability of HCT116 lacking mutant beta-catenin – cell-based, human colon tumor, dose response (AID 1045).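 Further: HCT116 colon tumor cells with beta catenin knocked out; cells exposed to compound for 60 hours.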 It counts as functional.
Test [5] has as its target G-protein coupled receptor 35 (Homo sapiens, UniProt Q9HC97). As to the kind of experiment: inhibition of zaprinast-stimulated GPR35 beta-arrestin translocation – imaging, U2OS, beta-arrestin-GFP, zaprinast agonist, primary screen (AID 2058).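 Further: antagonist potency meaning inhibition of agonist-induced arrestin redistribution.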 It counts as functional.
Test [6] concerns the target Peroxisome proliferator-activated receptor gamma/Nuclear receptor coactivator 2 (Homo sapiens, UniProt P37231). As to the kind of experiment: TR-FRET dose response biochemical High Throughput Screening assay for agonists of the steroid receptor coactivator 2 (SRC-2) recruitment by the peroxisome proliferator-activated receptor gamma (PPAR gamma): non-selective agonists. [Related pubchem assays: 1297, 1032 ]. It counts as functional.

Test [7] concerns the target Photoreceptor-specific nuclear receptor (Homo sapiens, UniProt Q9Y5X4). It is filed as functional.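 Further: potency for compounds that break the NR2E3 corepressor complex and count as activators.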
Test [8] has as its target Peroxisome proliferator-activated receptor gamma/Nuclear receptor coactivator 1 (Homo sapiens, UniProt P37231). Kind of test: TR-FRET dose response biochemical High Throughput Screening assay for agonists of the steroid receptor coactivator 1 (SRC-1) recruitment by the peroxisome proliferator-activated receptor gamma (PPAR gamma): non-selective agonists. [Related pubchem assays (depositor defined):AID1300, AID1808, AID504735, AID631]. It counts as protein assay. For orientation: Time-resolved FRET reads energy transfer from a long-lived donor to a nearby acceptor.

Test [9] concerns the target Peroxisome proliferator-activated receptor gamma/Nuclear receptor corepressor 2 (Homo sapiens, UniProt P37231+Q9Y618). It is filed as functional.
Test [10] concerns the target Peroxisome proliferator-activated receptor gamma/Nuclear receptor coactivator 3 (Homo sapiens, UniProt P37231). As to the kind of experiment: TR-FRET dose response biochemical High Throughput Screening assay for agonists of the steroid receptor coactivator 3 (SRC-3) recruitment by the peroxisome proliferator-activated receptor gamma (PPAR gamma): non-selective agonists. [Related pubchem assays: 1301 (Confirmation screen.), 1048 (Primary screen.)]. It counts as functional.

The target of the next test is fMet-Leu-Phe receptor (Homo sapiens, UniProt P21462). As to the kind of experiment: formyl peptide receptor binders – dose response (AID 519). It counts as functional.
Test [11] can be described thus: alpha-synuclein stem-loop luciferase translation blockers – H4 neuroglioma cells, luminescence, confirmation (AID 1988). It counts as functional, cell-based.
A short description of test [12]: luciferase reporter signal reduction – luminescence, H4-C neuroglioblastoma cells, dose response (AID 2458).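 Further: H4 neuroglioblastoma cells stably carrying a luciferase reporter gene fusion.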 It is filed as functional, cell-based. For orientation: Reporter assays use an easily measured gene product as a stand-in for the process of interest.
In another test the test system is J774.A1. As to the kind of experiment: Confirmation of image-based Screening Assay for Inhibitors of Phagocytosis. [Related pubchem assays (depositor defined):AID1029, AID1643]. To be noted: Mus musculus. It counts as functional, cell-based.
A short description of test [13]: luciferase reporter signal suppression in cells – H4 neuroglioma cells, luminescence, dose response (AID 1990). It is filed as functional, cell-based.
The nature of test [14]: Luminescence Cell-Based Dose Response HTS to Identify Inhibitors of 5'UTR Stem-Loop Driven Prion Protein mRNA Translation in H4 Neuroglioblastoma Cells. [Related pubchem assays: 1827 (Project Summary), 1813 (Primary HTS)]. It is filed as functional.
Test [15] is described as follows: alpha-synuclein stem-loop translation blockers – luminescence, H4 neuroglioblastoma cells, dose confirmation, confirmation (AID 2454).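 Further: H4 neuroglioblastoma cells carrying an alpha-synuclein 5'UTR luciferase reporter; potency for inhibition of the luciferase signal.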 It is filed as functional, cell-based.
The next test is described as follows: cells. It is filed as functional, cell-based.
Test [16] concerns the target DNA dC->dU-editing enzyme APOBEC-3G (Homo sapiens, UniProt Q9HC16). Kind of test: Dose Response confirmation of small molecule APOBEC3G DNA Deaminase Inhibitors via a fluorescence-based single-stranded DNA deaminase assay. [Related pubchem assays (depositor defined):AID493012, AID493028]. It counts as functional.
Test [17] concerns the target DNA dC->dU-editing enzyme APOBEC-3A (Homo sapiens, UniProt P31941). Kind of test: A3A deaminase inhibition for selectivity – biochemical, dose response (AID 504722). It counts as functional.
A further test addresses Protein Rev (Human immunodeficiency virus type 1 group M subtype B (isolate HXB2)(HIV-1), UniProt P04618). Kind of test: blockers of HIV Rev/RRE RNA complex – biochemical, fluorescence polarization, HIV-1, dose response (AID 434976). Further details: species or system Human immunodeficiency virus 1.
Test [18] addresses Female germline-specific tumor suppressor gld-1 (Caenorhabditis elegans, UniProt Q17339). Kind of test: blockers of GLD-1/TGE RNA complex formation – biochemical, fluorescence polarization, C. elegans, dose response (AID 2802).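 Further: fluorescence polarization of labeled TGE RNA bound by purified gld-1 protein.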
In the next test the test system is HeLa. As to the kind of experiment: viability loss in HeLa cells – cell-based, 24 h, cherry-picked samples, cytotoxicity control, dose response (AID 504726).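 Further: potency for cytotoxicity as loss of luminescence signal.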 It is filed as functional. The conditions noted are these: Homo sapiens.

Sequence of Photoreceptor-specific nuclear receptor (Q9Y5X4 whole entry): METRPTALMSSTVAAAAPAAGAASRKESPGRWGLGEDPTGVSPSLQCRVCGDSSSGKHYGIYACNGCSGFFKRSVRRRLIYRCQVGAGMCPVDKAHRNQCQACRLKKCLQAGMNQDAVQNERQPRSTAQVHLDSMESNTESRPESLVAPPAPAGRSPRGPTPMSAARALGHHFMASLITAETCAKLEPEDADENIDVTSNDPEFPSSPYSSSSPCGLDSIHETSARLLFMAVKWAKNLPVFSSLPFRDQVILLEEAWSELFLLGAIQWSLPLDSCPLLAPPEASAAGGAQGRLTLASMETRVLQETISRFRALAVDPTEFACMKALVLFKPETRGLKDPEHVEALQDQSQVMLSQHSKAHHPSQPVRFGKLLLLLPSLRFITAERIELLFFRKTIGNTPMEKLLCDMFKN
Sequence of G-protein coupled receptor 35 (Q9HC97 whole entry): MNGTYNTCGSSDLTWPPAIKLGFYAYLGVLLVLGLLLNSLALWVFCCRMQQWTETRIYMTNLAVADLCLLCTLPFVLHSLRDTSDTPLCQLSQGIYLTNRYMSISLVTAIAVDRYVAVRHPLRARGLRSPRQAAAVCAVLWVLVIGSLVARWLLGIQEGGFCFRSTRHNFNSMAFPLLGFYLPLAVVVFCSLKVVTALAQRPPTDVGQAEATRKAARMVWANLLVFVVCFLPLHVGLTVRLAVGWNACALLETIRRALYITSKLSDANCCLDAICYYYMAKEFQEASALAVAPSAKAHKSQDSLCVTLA
Sequence of Peroxisome proliferator-activated receptor gamma/Nuclear receptor coactivator 3 (P37231 whole entry): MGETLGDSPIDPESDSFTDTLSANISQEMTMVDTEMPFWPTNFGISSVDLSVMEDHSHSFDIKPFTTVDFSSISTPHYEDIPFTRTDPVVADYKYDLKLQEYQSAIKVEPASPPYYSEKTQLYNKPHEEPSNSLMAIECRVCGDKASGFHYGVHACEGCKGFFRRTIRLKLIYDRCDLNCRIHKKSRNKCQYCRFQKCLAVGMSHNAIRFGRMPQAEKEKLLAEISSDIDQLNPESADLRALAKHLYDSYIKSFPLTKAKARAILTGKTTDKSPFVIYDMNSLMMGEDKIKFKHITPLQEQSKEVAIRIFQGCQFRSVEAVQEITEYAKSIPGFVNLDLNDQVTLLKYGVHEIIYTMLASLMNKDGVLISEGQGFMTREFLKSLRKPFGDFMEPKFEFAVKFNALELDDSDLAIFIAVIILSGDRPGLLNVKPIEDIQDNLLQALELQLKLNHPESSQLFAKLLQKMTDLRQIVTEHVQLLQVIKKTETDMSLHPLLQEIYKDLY
Sequence of Peroxisome proliferator-activated receptor gamma/Nuclear receptor coactivator 3 (Q9Y6Q9 whole entry, further chain): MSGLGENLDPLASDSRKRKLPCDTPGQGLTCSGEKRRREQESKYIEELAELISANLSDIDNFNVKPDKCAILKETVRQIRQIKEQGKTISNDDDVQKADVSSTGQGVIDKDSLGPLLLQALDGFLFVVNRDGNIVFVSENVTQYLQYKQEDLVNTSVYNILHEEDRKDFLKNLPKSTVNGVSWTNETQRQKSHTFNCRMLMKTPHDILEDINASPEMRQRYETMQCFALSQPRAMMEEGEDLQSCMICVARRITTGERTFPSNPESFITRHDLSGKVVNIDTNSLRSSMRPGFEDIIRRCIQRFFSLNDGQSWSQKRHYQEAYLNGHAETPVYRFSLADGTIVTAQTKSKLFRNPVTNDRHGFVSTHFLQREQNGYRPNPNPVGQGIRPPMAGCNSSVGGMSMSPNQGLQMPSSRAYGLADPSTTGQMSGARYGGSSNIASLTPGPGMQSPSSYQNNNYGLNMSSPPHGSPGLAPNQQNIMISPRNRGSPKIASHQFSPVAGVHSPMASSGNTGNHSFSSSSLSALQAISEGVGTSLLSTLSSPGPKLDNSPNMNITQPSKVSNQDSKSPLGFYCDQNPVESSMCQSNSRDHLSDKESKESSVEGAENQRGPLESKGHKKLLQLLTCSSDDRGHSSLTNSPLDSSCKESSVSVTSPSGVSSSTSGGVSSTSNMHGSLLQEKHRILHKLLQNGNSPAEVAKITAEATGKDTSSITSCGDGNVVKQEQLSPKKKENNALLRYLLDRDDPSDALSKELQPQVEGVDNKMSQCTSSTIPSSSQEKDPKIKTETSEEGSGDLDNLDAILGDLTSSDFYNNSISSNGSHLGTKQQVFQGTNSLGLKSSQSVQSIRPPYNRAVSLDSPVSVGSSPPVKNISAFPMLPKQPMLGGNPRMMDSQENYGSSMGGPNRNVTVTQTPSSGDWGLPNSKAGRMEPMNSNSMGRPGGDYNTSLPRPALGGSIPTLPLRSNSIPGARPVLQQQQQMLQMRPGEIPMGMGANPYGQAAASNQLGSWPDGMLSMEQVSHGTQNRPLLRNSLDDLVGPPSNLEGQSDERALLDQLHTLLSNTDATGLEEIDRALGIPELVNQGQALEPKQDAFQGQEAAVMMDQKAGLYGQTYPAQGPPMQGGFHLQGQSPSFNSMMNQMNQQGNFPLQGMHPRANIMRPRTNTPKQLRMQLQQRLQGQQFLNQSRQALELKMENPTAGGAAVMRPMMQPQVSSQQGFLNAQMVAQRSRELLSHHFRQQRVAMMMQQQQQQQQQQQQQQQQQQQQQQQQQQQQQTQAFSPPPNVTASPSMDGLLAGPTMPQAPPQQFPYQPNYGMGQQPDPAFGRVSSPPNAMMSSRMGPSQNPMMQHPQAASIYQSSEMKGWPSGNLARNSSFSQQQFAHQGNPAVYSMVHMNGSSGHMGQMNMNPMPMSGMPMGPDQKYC
Sequence of Peroxisome proliferator-activated receptor gamma/Nuclear receptor coactivator 1 (P37231 whole entry): as the sequence (P37231 whole entry) above
Sequence of Peroxisome proliferator-activated receptor gamma/Nuclear receptor coactivator 1 (Q15788 whole entry, further chain): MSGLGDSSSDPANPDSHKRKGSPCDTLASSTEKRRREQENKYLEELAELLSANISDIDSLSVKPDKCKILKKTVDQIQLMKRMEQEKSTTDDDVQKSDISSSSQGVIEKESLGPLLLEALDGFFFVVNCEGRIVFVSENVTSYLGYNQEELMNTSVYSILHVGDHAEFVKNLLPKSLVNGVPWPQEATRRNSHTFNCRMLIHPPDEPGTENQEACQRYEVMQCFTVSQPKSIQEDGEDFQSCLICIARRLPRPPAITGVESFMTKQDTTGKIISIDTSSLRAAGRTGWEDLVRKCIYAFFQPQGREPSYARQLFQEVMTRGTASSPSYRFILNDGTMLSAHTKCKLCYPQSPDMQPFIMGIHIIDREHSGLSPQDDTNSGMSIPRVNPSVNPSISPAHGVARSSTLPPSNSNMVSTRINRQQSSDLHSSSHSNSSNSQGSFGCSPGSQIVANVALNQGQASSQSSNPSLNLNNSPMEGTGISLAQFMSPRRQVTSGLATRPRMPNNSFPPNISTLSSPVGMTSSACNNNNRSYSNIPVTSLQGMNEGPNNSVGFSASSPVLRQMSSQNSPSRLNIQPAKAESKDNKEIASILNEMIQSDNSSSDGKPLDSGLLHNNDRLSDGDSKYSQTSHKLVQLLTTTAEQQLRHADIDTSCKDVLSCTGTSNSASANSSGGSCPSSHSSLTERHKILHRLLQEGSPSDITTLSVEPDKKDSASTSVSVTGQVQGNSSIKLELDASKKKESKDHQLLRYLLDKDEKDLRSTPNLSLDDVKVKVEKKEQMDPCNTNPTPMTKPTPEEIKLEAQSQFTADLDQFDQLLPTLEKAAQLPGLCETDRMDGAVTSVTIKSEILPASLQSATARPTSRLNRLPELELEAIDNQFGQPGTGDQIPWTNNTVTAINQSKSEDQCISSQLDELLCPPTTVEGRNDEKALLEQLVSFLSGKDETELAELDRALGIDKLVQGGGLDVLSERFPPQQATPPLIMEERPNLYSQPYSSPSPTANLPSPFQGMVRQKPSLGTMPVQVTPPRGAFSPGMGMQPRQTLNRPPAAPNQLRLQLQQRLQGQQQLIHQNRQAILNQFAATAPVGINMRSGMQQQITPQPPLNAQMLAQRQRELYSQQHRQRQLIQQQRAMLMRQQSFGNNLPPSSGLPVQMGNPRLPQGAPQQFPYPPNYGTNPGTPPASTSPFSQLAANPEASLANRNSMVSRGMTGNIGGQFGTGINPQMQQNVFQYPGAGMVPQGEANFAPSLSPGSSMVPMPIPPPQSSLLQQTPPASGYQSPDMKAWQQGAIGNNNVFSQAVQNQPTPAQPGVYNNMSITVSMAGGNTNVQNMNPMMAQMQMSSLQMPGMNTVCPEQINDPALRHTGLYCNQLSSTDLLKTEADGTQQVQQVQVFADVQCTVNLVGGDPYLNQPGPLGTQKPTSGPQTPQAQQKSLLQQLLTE
Sequence of Female germline-specific tumor suppressor gld-1 (Q17339 whole entry): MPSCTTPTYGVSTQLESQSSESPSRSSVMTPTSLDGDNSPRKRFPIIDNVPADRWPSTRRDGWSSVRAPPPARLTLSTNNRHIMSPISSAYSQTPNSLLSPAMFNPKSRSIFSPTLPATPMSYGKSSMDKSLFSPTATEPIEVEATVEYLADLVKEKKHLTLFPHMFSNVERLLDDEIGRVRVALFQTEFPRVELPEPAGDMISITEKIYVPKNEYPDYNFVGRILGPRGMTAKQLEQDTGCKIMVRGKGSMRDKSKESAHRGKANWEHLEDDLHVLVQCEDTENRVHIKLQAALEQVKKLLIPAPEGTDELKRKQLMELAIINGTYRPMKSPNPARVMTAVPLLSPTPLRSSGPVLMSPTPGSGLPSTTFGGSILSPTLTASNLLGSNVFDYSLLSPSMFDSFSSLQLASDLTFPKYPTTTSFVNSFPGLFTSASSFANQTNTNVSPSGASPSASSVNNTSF

The term EC50 denotes the concentration needed to bring the measured effect to its halfway point. One may read the IC50 as the point on the concentration scale where inhibition reaches its midpoint. For `CCOc1ccc(NC(=O)C(C)Oc2ccccc2C(=O)Nc2ccc(C)c(Cl)c2)cc1` (stereo not drawn), the EC50 was 17.9 µM (active) in [1], 2.06 µM (active) in test [2], > 60 µM (not active) in test [3] and 19.6 µM (active) in test [4]. Besides, the IC50 in test [5] was 1.31 µM (active).

Broadly, the Ki is the equilibrium dissociation constant of an inhibitor or competing ligand from its target. Turning to `COc1cccc2cc(C(=O)C3=C(O)C(=O)N(Cc4ccco4)C3c3cccnc3)oc12` (stereo not drawn), the figures for the EC50 in test [6], in test [8] and in [10] were > 79.4 µM (not active), > 79.4 µM (inactive) and > 79.4 µM (not active), respectively. The IC50 in test [7] was > 39.8 µM (not active); in [9], 2.79 µM (active). In addition, the Ki on fMet-Leu-Phe receptor was > 66.7 µM (inactive).

As for `COc1ccc(NS(=O)(=O)c2cc(C)ccc2NC(=O)c2cc(C)oc2C)cc1`, the EC50 is < 0.1 µM (active) in test [11]; 0.651 µM (active) in test [12]; 7.02 µM (active) in [13]; 0.173 µM (active) in test [14]; 1.11 µM (active) in test [15]; 1.07 µM (active) in “cells”. In addition, in the test with J774.A1, the IC50 is 0.0632 µM (active).

In the case of `CCc1cc(-c2n[nH]c(=S)n2CC)cs1`, the IC50 was 5.02 µM (active) in [16] and > 100 µM (inactive) in test [17].

Consider `C=CCNC(=O)/C(C#N)=C/c1ccccc1[N+](=O)[O-]`, for which the values for the IC50 (against Protein Rev; in [18]) were 10.4 µM (not active) and 1.1 µM (active), respectively.

A word on the AC50: it is the midpoint of the concentration-response curve, whichever way the signal moves. Turning to `CCN(CCCNC(=O)Cn1cc2c(n1)CCCC2)c1cccc(C)c1`, in the test on HeLa, the AC50 was > 350 µM (inactive).
